The target in the experiment is human RORgammaT-Ligand Binding Domain (LBD) (Homo sapiens (Human), UniProt P51449). Description: RORγ-Ligand Binding Domain TR-FRET Assay (co-activator peptide SRC1_2 recruitment). Format: biochemical. On the technique in general: In TR-FRET formats the signal depends on donor and acceptor labels being close together.
human RORgammaT-Ligand Binding Domain (LBD), sequence (P51449 269-508): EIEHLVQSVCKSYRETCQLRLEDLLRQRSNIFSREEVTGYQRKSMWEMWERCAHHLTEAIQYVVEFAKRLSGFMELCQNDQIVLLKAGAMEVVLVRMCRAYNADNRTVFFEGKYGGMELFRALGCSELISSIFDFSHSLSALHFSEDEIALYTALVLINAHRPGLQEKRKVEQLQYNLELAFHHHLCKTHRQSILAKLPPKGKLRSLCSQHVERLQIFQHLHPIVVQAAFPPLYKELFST

Consider `CC(=O)NC[C@H]1CN(S(=O)(=O)c2ccc(F)cc2)c2cc(NC(=O)OC(C3CCCCC3)C(F)(F)F)ccc2O1` (stereo partly drawn) [Example 23D, 1-cyclohexyl-2,2,2-trifluoroethyl ((S)-2-(acetamidomethyl)-4-((4-fluorophenyl)sulfonyl)-3,4-dihydro-2H-benzo[b][1,4]oxazin-6-yl)carbamate], for which the half-maximal inhibitory concentration (IC50) (commonly the concentration that gives 50% inhibition) is 113 nM.

The record behind these values is US9663502B2, “2-Acylamidomethyl and sulfonylamidomethyl benzoxazine carbamates for inhibition of RORgamma activity and the treatment of disease” (Merck Sharp & Dohme Corp., priority 2013, dated 2017).
